How the values were obtained:
[1] = system: endosteal surface of rabbit tibiae; assay: DIC bright field and deconvolution fluorescence imaging of tibia sections; format: in vivo; settings: daily administration (D20 and D40), 4 weeks
Method: (§1) Calcein (Dojindo Laboratories, Kumamoto, Japan) was subcutaneously injected into each animal at a dose of 10 mg/kg body weight on days 13 and 5 before sacrifice for bone double labeling (1-7-1-3). After the dosing period, the animals were euthanized by exsanguination under anesthesia using thiopental. The left and right tibiae were collected for a micro-CT analysis and histomorphometry, respectively. The kidneys, thyroid and parathyroid of all animals were collected and fixed in 10% neutral buffered formalin for a histopathological examination. The left tibiae were packed in plastic bags and stored at -30°C until use in a micro-CT analysis and mechanical testing. […]
Calcein-labeled undecalcified bone sections were subjected to imaging acquisition using a microscopy system, ECLIPSE Ni (Nikon, Tokyo, Japan) equipped with differential interference contrast microscopy (DIC) and objectives (Nikon), as follows: Plan Apo λ 10x (numerical aperture [N.A.] = 0.45), Plan Apo λ 20x (N.A. = 0.75), and Plan Apo λ 40x (N.A. = 0.95). The fluorescence signals were obtained using filter sets, GFP-B (excitation: 460–500 nm, DM: 505 nm, emission: 510–560 nm; Nikon) for calcein, and TxRed (excitation: 540–580 nm, DM: 595 nm, emission: 600–660 nm; Nikon) for auto-fluorescence derived from soft tissue. […] The fluorescence and DIC images were sequentially acquired, with a pixel size of 0.64 μm. […]

endosteal bone collagen = settings: rabbit, in vivo
Method: as §1
An upright multi-photon excited microscopy system (A1RMP, Nikon Corporation, Japan) situated at the Imaging core facility of The Institute of Medical Science, The University of Tokyo was employed to acquire bone collagen-derived SHG signals and two-photon excited auto-fluorescence signals from Calcein-labeled undecalcified bone sections. […] The detection wavelengths were 420–425 nm and 500–550 nm for the acquisition of collagen-derived SHG signals and auto-fluorescence signals from soft tissue, respectively. […]

## CC[C@H](C)[C@H](NC(=O)[C@H](CCC(=O)O)NC(=O)[C@H](CO)NC(=O)[C@@H](NC(=O)[C@@H](N)CO)C(C)C)C(=O)N[C@@H](CCC(N)=O)C(=O)N[C@@H](CC(C)C)C(=O)N[C@@H](CCSC)C(=O)N[C@@H](Cc1cnc[nH]1)C(=O)N[C@@H](CC(N)=O)C(=O)N[C@@H](CC(C)C)C(=O)NCC(=O)N[C@@H](CCCCN)C(=O)N[C@@H](Cc1cnc[nH]1)C(=O)N[C@@H](CC(C)C)C(=O)N[C@@H](CC(N)=O)C(=O)N[C@@H](CO)C(=O)N[C@@H](CCSC)C(=O)N[C@@H](CCC(=O)O)C(=O)N[C@@H](CCCN=C(N)N)C(=O)N[C@H](C(=O)N[C@@H](CCC(=O)O)C(=O)N[C@@H](Cc1c[nH]c2ccccc12)C(=O)N[C@@H](CC(C)C)C(=O)N[C@@H](CCCN=C(N)N)C(=O)N[C@@H](CCCCN)C(=O)N[C@@H](CCCCN)C(=O)N[C@@H](CC(C)C)C(=O)N[C@@H](CCC(N)=O)C(=O)N[C@@H](CC(=O)O)C(=O)N[C@H](C(=O)N[C@@H](Cc1cnc[nH]1)C(=O)N[C@@H](CC(N)=O)C(=O)N[C@@H](Cc1ccccc1)C(=O)O)C(C)C)C(C)C [TPTD, Teriparatide]
[1]
  microscopic findings at the endosteal surface: development of bone marrow fibrosis and poorly mineralized and disorganized bone formation
Endosteal bone collagen
  endosteal bone collagen pattern (3D-SHG): amorphously short fibers

Reference: PMC5386260, “Acute development of cortical porosity and endosteal naïve bone formation from the daily but not weekly short-term administration of PTH in rabbit” (PLoS ONE, 2017)
